Experimental data: patent US20220401369A1, “SOLID DISPERSION OF PAN-RAF KINASE INHIBITOR” (DAY ONE BIOPHARMACEUTICALS, INC., priority 2019, published 2022)
Converted amounts (≈) assume the structure as drawn. Where two headings read alike, the source gives them in different places.

Assays:
[1] = Polymer screening by DSC (miscibility of Compound 1 in polymer); type: physicochemical
Experimental: Differential Scanning calorimetry (DSC) and Oil bath methods were applied to study solid dispersions comprising Compound 1. DSC is applied for the prediction of miscibility and solubility of Compound 1 in polymer.
Pure crystalline drug Compound 1 was physically mixed with each pure polymer. The equilibrium solution temperature (Tend) and Enthalpy (H) of Compound 1 in each 20% Compound 1 loaded physical mixture (PM) were measured for polymer screening by DSC (Discovery™ DSC, TA Instruments) with following steps;
−20° C. to over MP (melting point) of Compound 1 (206° C.) @1° C./min
From the endothermic peak of DSC, H and Tend were analyzed, and the change ratio A E between pure Compound 1 and PM was defined as miscibility parameters (Eq. 1). […] Therefore, the lower A E means the higher miscibility.

[2] = Solubility (24 h, 37° C.) in JP1 and JP2; type: physicochemical; settings: thermodynamic from solid
[3] = 20% Compound 1 loaded physical mixture with polymer, pure Compound 1 as reference

## C[C@@H](NC(=O)c1ncnc(N)c1Cl)c1ncc(C(=O)Nc2cc(C(F)(F)F)c(Cl)cn2)s1 [Compound 1, (R)-2-(1-(6-amino-5-chloropyrimidine-4-carboxamido)ethyl)-N-(5-chloro-4-(trifluoromethyl)pyridin-2-yl)thiazole-5-carboxamide]
[1]; [3]
  DSC H (enthalpy): 102.52 J/g
  DSC Tend (equilibrium solution temperature): 209.958 °C
[1]; 20% Compound 1 loaded physical mixture, lower ΔE means higher miscibility
  DSC ΔE (miscibility parameter): 2.00
[2]; aqueous buffer, JP2 (pH 6.8), Table 2, read-out: Solubility JP2
  solubility at 24 h: 1.1 µg/mL (≈ 2.17 µM)
[2]; simulated gastric fluid, JP1 (pH 1.2), Table 2, read-out: Solubility JP1
  solubility at 24 h: 3.4 µg/mL (≈ 6.72 µM)
